Earlier results as cited in patent US20060165789A1, “Lercanidipine modified release compositions” (Forest Laboratories, Inc., priority 2004, published 2006).

What was measured:
Caco2 cell = Caco2 cell apparatus
[1] = pH 5
[2] = test system: dihyropyridine subunit of the L-type calcium channel
[3] = target: cytochrome P450 3A4 isoenzyme (Homo sapiens, UniProt P08684); conditions: extensive presystemic first pass elimination in patients
[4] = for time of maximum concentration (Tmax): form (I) and form (II) compared

Sequence of cytochrome P450 3A4 isoenzyme (P08684 whole entry): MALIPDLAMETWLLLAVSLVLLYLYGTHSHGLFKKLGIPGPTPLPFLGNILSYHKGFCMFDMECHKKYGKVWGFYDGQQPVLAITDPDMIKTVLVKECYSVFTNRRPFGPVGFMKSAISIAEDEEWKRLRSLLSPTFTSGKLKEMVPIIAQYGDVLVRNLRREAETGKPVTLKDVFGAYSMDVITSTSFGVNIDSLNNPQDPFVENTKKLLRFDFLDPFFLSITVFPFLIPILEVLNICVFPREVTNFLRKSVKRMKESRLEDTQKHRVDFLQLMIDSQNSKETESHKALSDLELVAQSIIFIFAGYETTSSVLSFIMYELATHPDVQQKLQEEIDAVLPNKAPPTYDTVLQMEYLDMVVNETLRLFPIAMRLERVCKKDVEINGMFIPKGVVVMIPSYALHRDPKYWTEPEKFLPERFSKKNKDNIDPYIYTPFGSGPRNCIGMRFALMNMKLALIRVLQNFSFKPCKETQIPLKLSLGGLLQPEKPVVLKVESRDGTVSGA

SMILES | Papp (Caco2 cell) [×10⁻⁶ cm/s] | increase of amount of lercanidipine absorbed with food (in vivo) | time of peak plasma level following dosage (oral administration) [h] | solubility in acidic medium [1] | affinity for L-type calcium channel [2] | cytochrome P450 3A4 substrate [3] | time of maximum concentration (Tmax) [4] | bioavailability ([4]; form (II) compared to Form (I)) | systemic exposure (AUCo-t) ([4]; form (II) compared to Form (I))
COC(=O)C1=C(C)NC(C)=C(C(=O)OC(C)(C)CN(C)CCC(c2ccccc2)c2ccccc2)C1c1cccc([N+](=O)[O-])c1.Cl (stereo not shown) [Lercanidipine, methyl 1,1,N-trimethyl-N-(3,3-diphenylpropyl)-2-aminoethyl 1,4-dihydro-2,6-dimethyl-4-(3-nitrophenyl)pyridine-3,5-dicarboxylate] | 0.05 | between three and four times | 1 to 3 | less than 20 μg/ml | high affinity | substrate for cytochrome P450 3A4 isoenzyme | – | – | –
COC(=O)C1=C(C)NC(C)=C(C(=O)OC(C)(C)CN(C)CCC(c2ccccc2)c2ccccc2)C1c1cccc([N+](=O)[O-])c1 (stereo not shown) [form (I)] | – | – | – | – | – | – | shorter time to maximum concentration | – | –
COC(=O)C1=C(C)NC(C)=C(C(=O)OC(C)(C)CN(C)CCC(c2ccccc2)c2ccccc2)C1c1cccc([N+](=O)[O-])c1 (stereo not shown) [form (II)] | – | – | – | – | – | – | delayed time of maximum concentration | higher bioavailability | slightly higher systemic exposure
